This is an account of results in ChEMBL document CHEMBL1143413, “Synergistic effect of posaconazole and caspofungin against clinical zygomycetes” (Antimicrob Agents Chemother, 2007).

In brackets after ≈: the same amount, converted by molar mass.

The subject of data set [1] is Mucor. The data set can be described thus: Antifungal activity against Mucor strain 43 zygomycota by conventional morphological method. Type of data set: functional.
Data set [2] deals with Absidia. In words: Antifungal activity against Absidia strain 18 zygomycota by conventional morphological method. Type of data set: functional.
The next data set relates to Rhizomucor. The data set can be described thus: Antifungal activity against Rhizomucor sp. strain 25 zygomycota by conventional morphological method. The class given is functional.
Data set [3] concerns Rhizopus. The data set can be described thus: Antifungal activity against Rhizopus strain 3 zygomycota by conventional morphological method. The class given is functional.
In data set [4] the test system is Absidia. In words: Antifungal activity against Absidia strain 17 zygomycota by conventional morphological method. Type of data set: functional.
Another data set has as its system Syncephalastrum. In words: Antifungal activity against Snycephalastrum sp. strain 23 zygomycota by conventional morphological method. Type of data set: functional.
Another data set deals with Cunninghamella. The data set can be described thus: Antifungal activity against Cunninghamella sp. strain 12 zygomycota by conventional morphological method. The class given is functional.
Data set [5] relates to Mucor. The data set can be described thus: Antifungal activity against Mucor strain 39 zygomycota by conventional morphological method. The class given is functional.
Data set [6] has as its system Rhizopus. In words: Antifungal activity against Rhizopus strain 8 zygomycota by conventional morphological method. Type of data set: functional.
The test system of data set [7] is Mucor. In words: Antifungal activity against Mucor strain 28 zygomycota by conventional morphological method. Type of data set: functional.
The subject of data set [8] is Absidia. In words: Antifungal activity against Absidia strain 11 zygomycota by conventional morphological method. Type of data set: functional.
The test system of data set [9] is Rhizopus. In words: Antifungal activity against Rhizopus strain 0 zygomycota by conventional morphological method. Type of data set: functional.
Data set [10] in a line: Toxicity in invasive zygomycosis diseased patient assessed as mortality. The note with it: human, in vivo; read-out: Activity. The class given is organism-based.

Consider `CC[C@H](C)C[C@H](C)CCCCCCCCC(=O)N[C@H]1C[C@@H](O)[C@@H](NCCN)NC(=O)[C@@H]2[C@@H](O)CCN2C(=O)[C@H]([C@H](O)CCN)NC(=O)[C@H]([C@H](O)[C@@H](O)c2ccc(O)cc2)NC(=O)[C@@H]2C[C@@H](O)CN2C(=O)[C@H]([C@@H](C)O)NC1=O` [CASPOFUNGIN], for which the MIC with Mucor [1] was 256 µg/mL (≈ 234 µM); in the data set on Absidia [2] it was over 256 µg/mL; with Rhizomucor, 128 µg/mL (≈ 117 µM); against Rhizopus [3] it was over 256 µg/mL; against Absidia [4], over 256 µg/mL; in the data set on Syncephalastrum it was over 256 µg/mL. For the same compound, the MIC was over 256 µg/mL in the data set on Cunninghamella; over 256 µg/mL against Mucor [5]; over 256 µg/mL against Rhizopus [6]; 256 µg/mL (≈ 234 µM) with Mucor [7]; over 256 µg/mL against Absidia [8]; over 256 µg/mL with Rhizopus [9].
Consider `CC[C@@H]([C@H](C)O)n1ncn(-c2ccc(N3CCN(c4ccc(OC[C@@H]5CO[C@@](Cn6cncn6)(c6ccc(F)cc6F)C5)cc4)CC3)cc2)c1=O` [POSACONAZOLE], for which the MIC in the data set on Mucor [1] stood at 0.5 µg/mL (≈ 0.713 µM); with Absidia [2], 0.5 µg/mL (≈ 0.713 µM); in the data set with Rhizomucor, 2 µg/mL (≈ 2.85 µM); in the data set with Rhizopus [3] it was 1 µg/mL (≈ 1.43 µM); against Absidia [4], 1 µg/mL (≈ 1.43 µM); with Syncephalastrum, 1 µg/mL (≈ 1.43 µM). The MIC against Cunninghamella was 1 µg/mL (≈ 1.43 µM); against Mucor [5], 1 µg/mL (≈ 1.43 µM); against Rhizopus [6], 1 µg/mL (≈ 1.43 µM); against Mucor [7], 0.5 µg/mL (≈ 0.713 µM); against Absidia [8], 1 µg/mL (≈ 1.43 µM); with Rhizopus [9] it was 1 µg/mL (≈ 1.43 µM). The mortality in [10] came to 30%.
